Measured values taken from patent US20060222657A1, “Polypeptide transduction and fusogenic peptides” (priority 2003, published 2006).
“Also recorded” adds a separate entry of the source. Where no end group is shown, it is not given here. [ ]: non-standard residue; d: D form.

Legend:
tex.loxP.EG cells [1] = experiment: TAT-Cre mediated recombination of lox-stop-lox eGFP reporter, flow cytometry of live cells; type: cell-based, murine; conditions: for effect on TAT-Cre recombination (endocytosis inhibitors): pretreated 30′ in serum-free media, then TAT-Cre for 1 h, replated overnight; for effect on TAT-Cre recombination (free glycosaminglyans): incubated with TAT-Cre 1 hr in serum-free media, eGFP after 16 hr
3T3 LacZ reporter cells = experiment: Cytotoxicity (loss of cells) of chloroquine treatment; type: cell-based; conditions: effective dose of chloroquine; multiple several cell lines
Protocol: To recombine DNA and induce eGFP expression, TAT-Cre must escape from macropinosomes. […] Therefore to enhance release from macropinosomes, 3T3 LacZ reporter cells were treated with a sub-threshold dose of TAT-Cre in combination with increasing concentrations of chloroquine, an ion-transporting ATPase inhibitor that prevents vesicle acidification leading to endosomal disruption (FIG. 5a).

mammalian cells = experiment: TAT-Cre transduction efficiency and cytotoxicity with endosomal release agents (summary statement); type: cell-based
3T3 loxP.lacZ cells = experiment: TAT-Cre recombination of lacZ reporter, in situ β-galactosidase staining; type: cell-based; conditions: 100 μM and 200 μM chloroquine with sub-threshold TAT-Cre, overnight, DMEM +10% serum
Protocol: 3T3 loxP.lacZ cells containing a lacZ reporter expressed after recombination were grown in DMEM (Invitrogen) containing 10% fetal bovine serum. Following recombination cells expressing lacZ were assayed by in situ beta-galactosidase staining (Stratagene).
To determine the effect of endosomal release by chloroquine, 3T3 loxP.lacZ cells were treated with 0. 25 μM TAT-Cre and 0-200 μM chlorocguine (Sigma) in DMEM +10% FBS overnight. LacZ expression was measured by in situ β-galactosidase staining (Stratagene).

tex.loxP.EG cells [2] = experiment: TAT-Cre-488 and FM4-64 internalization by flow cytometry; type: cell-based, murine; conditions: nystatin 30′ pretreatment, then TAT-Cre-488 and FM4-64 for 1 h
Protocol: Recombination experiments. To measure the rate of TAT-Cre internalization, tex.loxP.EG cells were plated at 5×10^5 cells/well and treated with 0.5 μM TAT-Cre in RPMI +/− 10% FBS. After each time period, cells were trypsinized for 2′, washed and replated into complete media overnight. For all drug treatments [0-50 μg/mL chondroitin sulfate A, B, or C (Sigma), 0-25 μg/mL heparin (Sigma), 0-100 μg/mL nystatin (Fluka), 0-5 mM […] (Sigma), 0-5 mM amiloride (Sigma) and 0-10 μM cytochalasin D (Sigma)], cells were washed and pretreated for 30′ in serum-free media before the addition of TAT-Cre. Cells were maintained for 1 h in the presence of inhibitors (except for cyclodextrin) aftex which they were washed twice and replated overnight in media containing serum. To measure the effect of nystatin on TAT-Cre internalization, tex.loxP.EG cells were pretreated as described with 10, 25 or 50 μg/mL nystatin for 30′ before the addition of 2 μM TAT-Cre-488 and […] FM4-64. After 1 h, the cells were trypsinized and the fluorescence measured by flow cytometry. […] LacZ expression was measured by in situ β-galactosidase staining (Stratagene). For peptide treatments, tex.loxP.EG cells maintained in RPMI +10% FBS were incubated TAT-Cre and either […] HA2-tat or tat peptide for 16-20 h after which eGFP expression was measured by flow cytometry. […]

cells = conditions: cited from earlier work
tex.loxP.EG T cells = experiment: Cell surface binding of TAT-Cre; type: cell-based, murine; conditions: free glycosaminglyans in increasing concentrations, 1 hr, serum-free media
Protocol: Full-length TAT protein has previously been reported to bind strongly to cell surface heparin sulfate proteoglycans. […] To determine whether cell surface binding was a necessary and prerequisite step for TAT-Cre internalization, cells were incubated with TAT-Cre and increasing concentrations of free glycosaminglyans for 1 hr in serum-free media, then washed and replated the cells in complete media, and measured eGFP expression after 16 hr.

cell surface = conditions: increasing concentrations of polyanions; cited from earlier work
[3] = system: viral promoter within cells in culture; conditions: cited from earlier work

N=C(N)NC(=O)c1nc(Cl)c(N)nc1N [amiloride]
effect on TAT-Cre recombination (endocytosis inhibitors) (tex.loxP.EG cells [1]): dose-dependent inhibition of TAT-Cre transduction into the cells and lack of recombination; also recorded: dose-dependent decrease in recombination

CCN(CC)CCCC(C)Nc1ccnc2cc(Cl)ccc12 (stereo not drawn) [chloroquine]
cytotoxicity (3T3 LacZ reporter cells): extensive cytotoxicity | cytotoxicity (mammalian cells): extensive cytotoxicity | effect on transduction efficiency of TAT-Cre (mammalian cells): moderately increased transduction efficiency | effect on TAT-Cre recombination and LacZ expression (3T3 loxP.lacZ cells): significant increase in recombination and LacZ expression; also recorded: increases TAT-Cre recombination

C=C1[C@@H](C)[C@H]2[C@H](Cc3ccccc3)NC(=O)[C@]23[C@H](OC(C)=O)/C=C/[C@@](C)(O)C(=O)[C@@H](C)C/C=C/[C@H]3[C@@H]1O [cytochalasin D]
effect on TAT-Cre recombination (endocytosis inhibitors) (tex.loxP.EG cells [1]): dose-dependent inhibition of TAT-Cre transduction into the cells and lack of recombination; also recorded: dose-dependent decrease in recombination

C[C@@H]1[C@H](O)[C@@H](C)/C=C/C=C/CC/C=C/C=C/C=C/C=C/C(O[C@H]2O[C@H](C)[C@@H](O)[C@H](N)[C@@H]2O)CC2O[C@](O)(CC(O)C(O)CCC(O)CC(O)CC(O)CC(=O)O[C@H]1C)CC(O)C2C(=O)O (stereo partly drawn) [nystatin]
effect of nystatin pretreatment on HA2-TAT-mediated enhancement of recombination (tex.loxP.EG cells [1]; nystatin 30′ in serum-free media, then TAT-Cre +/− 5 mM HA2-TAT for 1 h): inhibited HA2-TAT-mediated enhancement of recombination; also recorded: blocks the effect of HA2-TAT peptide | effect on TAT-Cre recombination (endocytosis inhibitors) (tex.loxP.EG cells [1]): dose-dependent inhibition of recombination | FM4-64 endosomal dye internalization after nystatin treatment (tex.loxP.EG cells [2]): only a minor decrease | TAT-Cre-488 internalization after nystatin treatment (tex.loxP.EG cells [2]): near complete loss of TAT-Cre-488 internalization

OC[C@H]1O[C@@H]2O[C@H]3[C@H](O)[C@@H](O)[C@@H](O[C@H]4[C@H](O)[C@@H](O)[C@@H](O[C@H]5[C@H](O)[C@@H](O)[C@@H](O[C@H]6[C@H](O)[C@@H](O)[C@@H](O[C@H]7[C@H](O)[C@@H](O)[C@@H](O[C@H]8[C@H](O)[C@@H](O)[C@@H](O[C@H]1[C@H](O)[C@H]2O)O[C@@H]8CO)O[C@@H]7CO)O[C@@H]6CO)O[C@@H]5CO)O[C@@H]4CO)O[C@@H]3CO [β-cyclodextrin]
effect on TAT-Cre recombination (endocytosis inhibitors) (tex.loxP.EG cells [1]): dose-dependent inhibition of recombination

FITKALGISYGRKKRR [TAT-(37-53)]
cell internalization and nuclear localization (cells): not able to transduce into cells

GRKKRRQ RRRPPQ (GRKKRRQRRRPPQ) [TAT-(48-60)]
cell internalization and nuclear localization (cells): fully retained the ability for cell internalization and nuclear localization | transduction efficiency relative to other active peptide sequences (cells): more efficiently transduced than other active peptide sequences

GRKKRRQRRR (G[dR][dK][dK][dR][dR][dQ][dR][dR][dR]) [TAT D-isomer peptide, control TAT peptide]
effect of peptide on TAT-Cre recombination (in words) (tex.loxP.EG cells [1]): only minor increases in recombination

LGISYGRKKRRQRRRPPQ [TAT-(43-60)]
cell internalization and nuclear localization (cells): fully retained the ability for cell internalization and nuclear localization

chondroitin sulfate B
effect on TAT-Cre recombination (free glycosaminglyans) (tex.loxP.EG cells [1]): strongly inhibited subsequent recombination | effect on surface binding of TAT-Cre (tex.loxP.EG T cells): prevented surface binding of TAT-Cre

chondroitin sulfate C
effect on TAT-Cre recombination (free glycosaminglyans) (tex.loxP.EG cells [1]): strongly inhibited subsequent recombination | effect on surface binding of TAT-Cre (tex.loxP.EG T cells): prevented surface binding of TAT-Cre

dextran sulphate
effect on intracellular accumulation of TAT (cell surface): competitively blocked

heparin
effect on TAT-Cre recombination (free glycosaminglyans) (tex.loxP.EG cells [1]): strongly inhibited subsequent recombination | effect on intracellular accumulation of TAT (cell surface): competitively blocked | effect on surface binding of TAT-Cre (tex.loxP.EG T cells): prevented surface binding of TAT-Cre

B1: Cre: control Cre protein without TAT, expressed and purified under identical conditions (protein, UniProt P06956 1-343, looked up)
Recombinase cre: MSNLLTVHQNLPALPVDATSDEVRKNLMDMFRDRQAFSEHTWKMLLSVCRSWAAWCKLNNRKWFPAEPEDVRDYLLYLQARGLAVKTIQQHLGQLNMLHRRSGLPRPSDSNAVSLVMRRIRKENVDAGERAKQALAFERTDFDQVRSLMENSDRCQDIRNLAFLGIAYNTLLRIAEIARIRVKDISRTDGGRMLIHIGRTKTLVSTAGVEKALSLGVTKLVERWISVSGVADDPNNYLFCRVRKNGVAAPSATSQLSTRALEGIFEATHRLIYGAKDDSGQRYLAWSGHSARVGAARDMARAGVSIPEIMQAGGWTNVNIVMNYIRNLDSETGAMVRLLEDGD
site specific recombination and eGFP expression after treatment (tex.loxP.EG cells [1]; tex.loxP.EG cells, eGFP measured 16-20 h later by flow cytometry): failed to undergo recombination and express eGFP

B2: TAT protein: HIV-1 transcriptional activator TAT protein, full length (protein)
chain: MEPVDPRLEPWKHPGSQPKTACTNCYCKKCCFHCQVCFITKALGISYGRKKRRQRRRPPQGSQTHQVSLSKQPTSQSRGDPTGPKE
modifications: transducing protein
concentration sufficient to induce reporter activity ([3]; added to the culture media, no external perturbations): 1 nM | treatment time of maximal increase in biological activity ([3]; all cell types used): 5 minutes
